Experiments:
[1] = system: rabbit serum obtained by immunizing a rabbit with the SARS-CoV strain Frankfurt 1; assay type: binding; set-up: Binding of a rabbit serum to linear peptides / Binding of a rabbit serum to looped peptides / Rabbit serum linear peptides / Rabbit serum looped peptides / Binding of a rabbit serum to linear peptides of protein N of SARS-CoV Urbani (Rabbit serum linear peptides) / Binding of a rabbit serum to looped/cyclic peptides of protein N of SARS-CoV Urbani (Rabbit serum looped peptides): unit not given here
[2] = system: control sera (pooled serum of ten healthy LUMC hospital workers; commercial negative donor pooled serum from the Dutch bloodbank); assay type: binding, human; set-up: Binding of Control serum LUMC to linear peptides / Binding of Control serum Blood-bank to linear peptides / Binding of Control serum LUMC to looped peptides / Binding of Control Serum Blood-Bank to Looped peptides / Binding of Control serum LUMC to linear peptides of the protein M of SARS-CoV Urbani / Binding of Control serum Blood-bank to linear peptides of the protein M of SARS-CoV Urbani / Binding of Control serum LUMC to looped peptides of the protein M of SARS-CoV Urbani / Binding of Control Serum Blood-Bank to Looped peptides of the protein M of SARS-CoV Urbani: unit not given here
[3] = system: antibodies in sera from SARS patients (sera 1a, 1b, 2, 6, 37, 62, London, SARS-yellow, SARS-green); assay type: binding, human; set-up: Binding of serum 6 to linear peptides of protein X1 of SARS-CoV Urbani / Binding of serum 37 to linear peptides of protein X1 of SARS-CoV Urbani / Binding of serum 6 to looped/cyclic peptide (PEPSCAN-ELISA) / Binding of serum 37 to looped/cyclic peptide (PEPSCAN-ELISA) / Binding of serum 37 to looped/cyclic peptides of protein X1 of SARS-CoV Urbani / Binding of serum 6 to linear peptides of protein X2 / Binding of serum 37 to linear peptides of protein X2 / Binding of serum 37 to looped/cyclic peptides of protein X2 of SARS-CoV Urbani / Binding of serum 6 to linear peptides of protein M of SARS-CoV Urbani / Binding of serum 37 to linear peptides of protein M of SARS-CoV Urbani / Binding of serum 6 to looped/cyclic peptides of protein M of SARS-CoV Urbani / Binding of serum 37 to looped/cyclic peptides of protein M of SARS-CoV Urbani / Binding of serum 6 to linear peptides of protein X3 of SARS-CoV Urbani / Binding of serum 37 to linear peptides of protein X3 of SARS-CoV Urbani / Binding of serum 37 to looped/cyclic peptides of protein X3 of SARS-CoV Urbani / Binding of serum 6 to linear peptides of protein X4 of SARS-CoV Urbani / Binding of serum 37 to linear peptides of protein X4 of SARS-CoV Urbani / Binding of serum 37 to looped/cyclic peptides of protein X4 of SARS-CoV Urbani / Binding of serum 6 to linear peptides of protein X5 of SARS-CoV Urbani / Binding of serum 37 to linear peptides of protein X5 of SARS-CoV Urbani / Binding of serum 37 to looped/cyclic peptides of protein X5 of SARS-CoV Urbani / Binding of serum 6 to linear peptides of protein N of SARS-CoV Urbani / Binding of serum 37 to linear peptides of protein N of SARS-CoV Urbani / Binding of serum 6 to linear peptide (PEPSCAN-ELISA) / Binding of serum 1a to looped/cyclic peptides of protein N of SARS-CoV Urbani / Binding of serum 1b to looped/cyclic peptides of protein N of SARS-CoV Urbani / Binding of serum 2 to looped/cyclic peptides of protein N of SARS-CoV Urbani / Binding of serum 6 to looped/cyclic peptides of protein N of SARS-CoV Urbani / Binding of serum 37 to looped/cyclic peptides of protein N of SARS-CoV Urbani / Binding of serum 62 to looped/cyclic peptides of protein N of SARS-CoV Urbani / Binding of serum London to looped/cyclic peptides of protein N of SARS-CoV Urbani / Binding of serum SARS-green to looped/cyclic peptides of protein N of SARS-CoV Urbani: unit not given here

VAAGMEAQFLYLYAL
Binding of a rabbit serum to linear peptides [1]: 0.1 | Binding of a rabbit serum to looped peptides [1]: 0.5 | Binding of Control Serum Blood-Bank to Looped peptides [2]: 0.5 | Binding of Control serum Blood-bank to linear peptides [2]: 0.5 | Binding of Control serum LUMC to linear peptides [2]: 0.9 | Binding of Control serum LUMC to looped peptides [2]: 0.8 | Binding of serum 1a to linear peptides of protein X1 of SARS-CoV Urbani [3]: 0.7 | Binding of serum 1a to looped/cyclic peptide (PEPSCAN-ELISA) [3]: 0.5 | Binding of serum 1b to linear peptides of protein X1 of SARS-CoV Urbani [3]: 0.6 | Binding of serum 1b to looped/cyclic peptide (PEPSCAN-ELISA) [3]: 0.4 | Binding of serum 2 to linear peptides of protein X1 of SARS-CoV Urbani [3]: 0.5 | Binding of serum 2 to looped/cyclic peptide (PEPSCAN-ELISA) [3]: 0.4 | Binding of serum 6 to linear peptides of protein X1 of SARS-CoV Urbani [3]: 0.4 | Binding of serum 6 to looped/cyclic peptide (PEPSCAN-ELISA) [3]: 0.3 | Binding of serum 37 to linear peptides of protein X1 of SARS-CoV Urbani [3]: 0.5 | Binding of serum 37 to looped/cyclic peptide (PEPSCAN-ELISA) [3]: 0.5 | Binding of serum 62 to linear peptides of protein X1 of SARS-CoV Urbani [3]: 0.4 | Binding of serum 62 to looped/cyclic peptide (PEPSCAN-ELISA) [3]: 0.5 | Binding of serum London to linear peptides of protein X1 of SARS-CoV Urbani [3]: 0.2 | Binding of serum London to looped/cyclic peptide (PEPSCAN-ELISA) [3]: 0.2 | Binding of serum SARS-green to linear peptides of protein X1 of SARS-CoV Urbani [3]: 0.2 | Binding of serum SARS-green to looped/cyclic peptide (PEPSCAN-ELISA) [3]: 0.3 | Binding of serum SARS-yellow to linear peptides of protein X1 of SARS-CoV Urbani [3]: 0.3 | Binding of serum SARS-yellow to looped/cyclic peptide (PEPSCAN-ELISA) [3]: 0.5

VAFLAVFQSATKIIA
Binding of a rabbit serum to linear peptides [1]: 0.2 | Binding of a rabbit serum to looped peptides [1]: 0.6 | Binding of Control Serum Blood-Bank to Looped peptides [2]: 0.7 | Binding of Control serum Blood-bank to linear peptides [2]: 0.6 | Binding of Control serum LUMC to linear peptides [2]: 0.5 | Binding of Control serum LUMC to looped peptides [2]: 0.7 | Binding of serum 1a to linear peptides of protein X1 of SARS-CoV Urbani [3]: 0.6 | Binding of serum 1a to looped/cyclic peptide (PEPSCAN-ELISA) [3]: 0.6 | Binding of serum 1b to linear peptides of protein X1 of SARS-CoV Urbani [3]: 0.5 | Binding of serum 1b to looped/cyclic peptide (PEPSCAN-ELISA) [3]: 0.4 | Binding of serum 2 to linear peptides of protein X1 of SARS-CoV Urbani [3]: 0.5 | Binding of serum 2 to looped/cyclic peptide (PEPSCAN-ELISA) [3]: 0.6 | Binding of serum 6 to linear peptides of protein X1 of SARS-CoV Urbani [3]: 0.7 | Binding of serum 6 to looped/cyclic peptide (PEPSCAN-ELISA) [3]: 0.7 | Binding of serum 37 to linear peptides of protein X1 of SARS-CoV Urbani [3]: 0.6 | Binding of serum 37 to looped/cyclic peptide (PEPSCAN-ELISA) [3]: 0.6 | Binding of serum 62 to linear peptides of protein X1 of SARS-CoV Urbani [3]: 0.6 | Binding of serum 62 to looped/cyclic peptide (PEPSCAN-ELISA) [3]: 0.6 | Binding of serum London to linear peptides of protein X1 of SARS-CoV Urbani [3]: 0.2 | Binding of serum London to looped/cyclic peptide (PEPSCAN-ELISA) [3]: 0.7 | Binding of serum SARS-green to linear peptides of protein X1 of SARS-CoV Urbani [3]: 0.2 | Binding of serum SARS-green to looped/cyclic peptide (PEPSCAN-ELISA) [3]: 0.4 | Binding of serum SARS-yellow to linear peptides of protein X1 of SARS-CoV Urbani [3]: 0.4 | Binding of serum SARS-yellow to looped/cyclic peptide (PEPSCAN-ELISA) [3]: 0.5

VATSRTLSYYKLGAS
Rabbit serum linear peptides [1]: 0.3 | Rabbit serum looped peptides [1]: 0.7 | Binding of Control Serum Blood-Bank to Looped peptides of the protein M of SARS-CoV Urbani [2]: 0.5 | Binding of Control serum Blood-bank to linear peptides of the protein M of SARS-CoV Urbani [2]: 0.8 | Binding of Control serum LUMC to linear peptides of the protein M of SARS-CoV Urbani [2]: 0.6 | Binding of Control serum LUMC to looped peptides of the protein M of SARS-CoV Urbani [2]: 0.6 | Binding of serum 1a to linear peptides of protein M of SARS-CoV Urbani [3]: 0.6 | Binding of serum 1a to looped/cyclic peptides of protein M of SARS-CoV Urbani [3]: 0.8 | Binding of serum 1b to linear peptides of protein M of SARS-CoV Urbani [3]: 0.5 | Binding of serum 1b to looped/cyclic peptides of protein M of SARS-CoV Urbani [3]: 0.6 | Binding of serum 2 to linear peptides of protein M of SARS-CoV Urbani [3]: 0.6 | Binding of serum 2 to looped/cyclic peptides of protein M of SARS-CoV Urbani [3]: 0.7 | Binding of serum 6 to linear peptides of protein M of SARS-CoV Urbani [3]: 0.8 | Binding of serum 6 to looped/cyclic peptides of protein M of SARS-CoV Urbani [3]: 0.6 | Binding of serum 37 to linear peptides of protein M of SARS-CoV Urbani [3]: 0.5 | Binding of serum 37 to looped/cyclic peptides of protein M of SARS-CoV Urbani [3]: 0.7 | Binding of serum 62 to linear peptides of protein M of SARS-CoV Urbani [3]: 0.5 | Binding of serum 62 to looped/cyclic peptides of protein M of SARS-CoV Urbani [3]: 0.6 | Binding of serum London to linear peptides of protein M of SARS-CoV Urbani [3]: 0.3 | Binding of serum London to looped/cyclic peptides of protein M of SARS-CoV Urbani [3]: 0.2 | Binding of serum SARS-green to linear peptides of protein M of SARS-CoV Urbani [3]: 0.4 | Binding of serum SARS-green to looped/cyclic peptides of protein M of SARS-CoV Urbani [3]: 0.3 | Binding of serum SARS-yellow to linear peptides of protein M of SARS-CoV Urbani [3]: 0.3 | Binding of serum SARS-yellow to looped/cyclic peptides of protein M of SARS-CoV Urbani [3]: 0.6
